Experimental data taken from patent US11608367B2, “Peptides for angiogenic therapy” (The Regents of the University of California, priority 2018, dated 2023).

Legend:
[1] = tested on: cancer, cardiac and neuronal cell lines; assay: Categorisation of active ADPs as pro-/anti-apoptotic (Example 15); conditions: criteria of Example 15
[2] = Effectiveness of ADPs (Example 1, Table 6; cell death assays of FIGS. 10-13); type: cell-based; conditions: ADPs with N-terminal tumor penetrating peptide and C-terminal fluorescent tag; graded in words
Excerpt: FIGS. 10A-C show the sequences mapped, peptide blots, imaging to show expression and cell death assays for these three peptides. A) PPA-1 (PEPTIDE23) (SEQ ID NO:23), B) PPA4 (PEPTIDE19) (SEQ ID NO:19), C) PPA10 (PEPTIDE16 including FF at C-terminus) (SEQ ID NO:16).
FIGS. 11A-B show the sequences mapped, peptide blots, imaging to show expression and cell death assays for these HSP-70 peptides. A) PHA4 (PEPTIDE5) (SEQ ID NO:5), B) PHA5 (PEPTIDE13 plus C-terminal L) (SEQ IDS NO: 13).
FIGS. 12A-C show the sequences mapped, peptide blots, imaging to show expression and cell death assays for these p65 (RELA) peptides. A) PRA1 (PEPTIDE14) (SEQ ID NO:14), B) PRA8 (PEPTIDE8) (SEQ ID NO:8), C) PRA9 (SEQ ID Nos:33 and 37-45).
FIGS. 13A-D show the sequences mapped, peptide blots, imaging to show expression and cell death assays for these HSP-70 peptides. A) PAA1-1 (PEPTIDE11) (SEQ ID NO:11), B) PPA1-3 (PEPTIDE15) (SEQ ID NO:15), C) PAR1 (PEPTIDE19), D) Paint 1 (PEPTIDE7) (SEQ ID NO:7).
ADPs were first identified using Peptide SPOT analysis. Peptides were identified from AKIP1. PKAc, HSP-70 and p65 sequences. The identified ADPs were attached at the N-terminus to tumor penetrating peptide based on the CENDR rule (FIG. 9). A fluorescent tag was attached to the C-terminus for ease of visualization.
To test these ADPs, CRISPR based AKIP1 knock-out cell lines were generated in HEK 293 and glioblastoma cell lines. Further, all the isoforms of AKIP1 were reintroduced into the AKIP1 knock-out glioblastoma cell lines.

[3] = tested on: cancer, cardiac and neuronal cell lines; assay: Categorisation of active ADPs as pro-/anti-apoptotic (Example 15); conditions: depending on cell type
Excerpt: 2) improved cell viability in cardiac or neuronal cell lines and decreased viability in at least 2 cancer cell lines.

U87-MG cells = assay: Caspase-Glo 3/7 apoptotic assay; type: cell-based, human; conditions: cut-off value at 20 over scrambled control with P Value <0.05%
Description: Caspase-Glo® 3/7 assays (Promega) were performed according to the manufacturer's protocol. Briefly, 15,000-20,000 cells were seeded in a 96 well white flat bottom plate. The peptide constructs were transfected in triplicates using Lipofectamine 3000. Twenty four hour post-transfection, the cells were equilibrated at room temperature and Caspase-Glo® 3/7 reagent was dispensed into each well and the luminescent signal was measured 30-60 mins incubation at room temperature. The blank reaction was used to measure background luminescence associated with the cell culture system and Caspase-Glo® 3/7 Reagent alone. The value for the blank reaction was subtracted from experimental values to obtain the relative luminescence values (RLU). The percentage change over the Scrambled control was calculated from the mean as follows: [(Mean peptide RLU-Mean Scr RLU)/Scr RLU*100]. The P value was calculated using the Student t Test.
The efficacy of the 25 disclosed peptides to cause apoptosis in the U87-MG cells was measured using Caspase-Glo® 3/7 Assay. For each of the peptides, the percentage change over the scrambled control was tabulated and a cut-off value at 20 with a P Value of <0.05%.

Sequence	Pro-apoptotic (anti-angiogenic) category [1]	Effectiveness [2]	also measured
GGSYQISEHAPEASQPAENISKDLYIEVYPGTYS [PEPTIDE7]	Pro-apoptotic (anti-angiogenic)	Low	–
PLIFPAEPAQASGPYVEIIEQPKQ [PEPTIDE14]	Pro-apoptotic (anti-angiogenic)	High	–
IMQDKLEKERNDAKNAVEEYVYEMRDKLSGEYEKFVSEDDRNSFTLKLEDTENWL [PHA 5, PEPTIDE13 without the C-terminal Y]	–	High	–
DIGNGQRKDRKKTSLGPGGSYQISEHA [PEPTIDE5]	Pro-apoptotic (anti-angiogenic)	High	–
SHFSEHTALWDRSMKEFLAKAKEDFLKK [PEPTIDE10]	Pro-apoptotic (anti-angiogenic)	–	anti-apoptotic (pro-angiogenic) category [1]: anti-apoptotic (pro-angiogenic); both pro and anti-apoptotic effect [3]: both pro and anti-apoptotic effect
VKKRDLEQAISQRIQTNNNPFQVPIEEQRGDYDLNAVR [PEPTIDE8]	Pro-apoptotic (anti-angiogenic)	Moderate	anti-apoptotic (pro-angiogenic) category [1]: anti-apoptotic (pro-angiogenic); both pro and anti-apoptotic effect [3]: both pro and anti-apoptotic effect
DNCLAAAALNGVDRRSLQRSAKLALEVLERAKRR [PAint]	–	Moderate	–
KYYSSVPEEGGATHVYRYHRGESKLHM [PEPTIDE9]	Pro-apoptotic (anti-angiogenic)	High	–
REERPPTLSASFRTMAEFMDYTSSQCG [PEPTIDE1]	Pro-apoptotic (anti-angiogenic)	–	–
LNGVDRRSLQRSARLALEVLERAK [PEPTIDE11]	Pro-apoptotic (anti-angiogenic)	High	anti-apoptotic (pro-angiogenic) category [1]: anti-apoptotic (pro-angiogenic); both pro and anti-apoptotic effect [3]: both pro and anti-apoptotic effect
RKDRKKTSLGPGGSYQISEHAPEASQP [PEPTIDE2]	Pro-apoptotic (anti-angiogenic)	–	–
VKKRDLEQAISQRIQTNNN [PEPTIDE18]	Pro-apoptotic (anti-angiogenic)	–	–
DNCLAAAALNGVDRRSLQRSARLALEVLERAKR [PEPTIDE12]	–	–	anti-apoptotic (pro-angiogenic) category [1]: anti-apoptotic (pro-angiogenic)
IMQDKLEKERNDAKNAVEEYVYEMRDKLSGEYEKFVSEDDRNSFTLKLEDTENWLY [PEPTIDE13]	Pro-apoptotic (anti-angiogenic)	–	–
RRAVDWHALERPKGCMGVLAREAPHLEKQPAAGPQRVLPGE [PEPTIDE3]	Pro-apoptotic (anti-angiogenic)	–	–
STDPAVFTDLASVDNSEFQQLLNQG [PEPTIDE25]	–	–	apoptosis in U87-MG cells (in words) (U87-MG cells): very low apoptosis
VTVGSNDLTKKTHVVAVDSGQSVDLVFPV [PEPTIDE4]	Pro-apoptotic (anti-angiogenic)	–	anti-apoptotic (pro-angiogenic) category [1]: anti-apoptotic (pro-angiogenic); both pro and anti-apoptotic effect [3]: both pro and anti-apoptotic effect
FTDLASVONSEFQQLLNQ (FTDLASVDNSEFQQLLNQ) [PEPTIDE24]	–	–	apoptosis in U87-MG cells (in words) (U87-MG cells): very low apoptosis
DWWALGVLIYEMAAGYPP [PEPTIDE17]	Pro-apoptotic (anti-angiogenic)	–	–
